ChEMBL document CHEMBL1134508, “3-(4-aroyl-1H-pyrrol-2-yl)-N-hydroxy-2-propenamides, a new class of synthetic histone deacetylase inhibitors” (J Med Chem, 2001)
Square brackets hold non-standard residues; d marks the D form. Peptide text beside a SMILES is read from it. Aoe = N[C@@H](CCCCCC(=O)[C@@H]1CO1)C(=O)O

Legend:
Histone deacetylase HD2 [1] = target: T1, Histone deacetylase HD2 (Zea mays, UniProt Q94F81); assay: Experimental anti-HDAC (anti-histone deacetylase) activity of the compound
T1 sequence (Q94F81 whole entry): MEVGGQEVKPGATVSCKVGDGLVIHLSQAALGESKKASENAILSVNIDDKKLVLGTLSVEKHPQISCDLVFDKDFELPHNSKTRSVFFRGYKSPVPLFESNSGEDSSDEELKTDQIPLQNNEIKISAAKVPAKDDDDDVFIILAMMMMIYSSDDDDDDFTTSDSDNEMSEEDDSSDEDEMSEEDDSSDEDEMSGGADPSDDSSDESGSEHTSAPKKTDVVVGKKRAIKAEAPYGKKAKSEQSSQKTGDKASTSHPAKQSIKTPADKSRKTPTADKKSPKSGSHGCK

Histone deacetylase HD2 [2] = target: T1, Histone deacetylase HD2; assay: Inhibitory concentration against histone deacetylase activity
[3] = target: T2, Histone deacetylase HD2 (Zea mays) (UniProt Q94F81); assay: Percent inhibition of histone deacetylase activity at 30 uM
T2 sequence (whole entry): T1 sequence (Q94F81 whole entry)

[4] = target: T2, Histone deacetylase HD2 (Zea mays); assay: Percent inhibition of histone deacetylase activity at 5 mM

| Structure (SMILES) | Ki (Histone deacetylase HD2 [1]) [nM] | IC50 (Histone deacetylase HD2 [2]) [nM] | inhibition [3] [%] | inhibition [4] [%] |
| --- | --- | --- | --- | --- |
| O=C(CCCCCCC(=O)Nc1ccccc1)NO [VORINOSTAT] | 132 | – | – | – |
| Cn1cc(C(=O)c2ccc(F)cc2)cc1/C=C/C(=O)NO | 2290 | 3800 | 84 | – |
| COc1ccc(C(=O)c2cc(/C=C/C(=O)NO)n(C)c2)cc1 | 1740 | 2900 | 75.2 | – |
| Cc1ccc(C(=O)c2cc(/C=C/C(=O)NO)n(C)c2)cc1 | 1120 | 1900 | 86.4 | – |
| CCCC(=O)[O-].[Na+] | – | – | – | 35 |
| Cn1cc(C(=O)c2ccc([N+](=O)[O-])cc2)cc1/C=C/C(=O)NO | 2340 | 3900 | 78 | – |
| Cn1cc(C(=O)c2ccccc2)cc1/C=C/C(=O)NCCO | – | – | 0.9 | – |
| CN(C)c1ccc(C(=O)c2cc(/C=C/C(=O)NO)n(C)c2)cc1 | 1450 | 2400 | 88 | – |
| Cn1cc(C(=O)c2ccccc2)cc1/C=C/C(=O)NN | – | – | 0.2 | – |
| O=C1N[C@@H](Cc2ccccc2)C(=O)N2CCC[C@@H]2C(=O)N[C@@H](CCCCCC(=O)[C@@H]2CO2)C(=O)N[C@H]1Cc1ccccc1 [TRAPOXIN B] (cyclo(FF[dP][Aoe])) | – | 10 | – | – |
| Cn1cc(C(=O)c2ccccc2)cc1CCC(=O)NO | 4.37 | 36800 | 45 | – |
| Cn1cc(C(=O)c2ccc(Cl)cc2)cc1/C=C/C(=O)NO | 1450 | 2400 | 87 | – |
| Cn1cc(C(=O)c2ccccc2)cc1/C=C/C(=O)NO | 2290 | 3800 | 86 | – |
